Data taken from patent US20070203098A1, “Pten Inhibitors” (priority 2004, published 2007).
Several values for one entry are separate records, joined by “and”; a condition that tells them apart may be missing. Identical values can stand only once. Like-named read-outs stand apart in the source and are kept apart here. Marks after values point to notes of the source that are not given here.

Tests used:
mouse aortic ring = assay: In Vitro Aortic Ring Angiogenesis Assay; format: cell-based; details: 120 h; for activity at 40 µM: 5 days
[1] = system: human prostate cancer cells (PC-3); assay: MTT Assay for Determining Toxicity, PC-3; format: cell-based; details: read-out: Viability IC50 PC-3
PTEN [2] = target: T1, PTEN (Homo sapiens, UniProt P60484); assay: PTEN Inhibition Assay: General Screening; format: biochemical
T1 sequence (P60484 whole entry, species assumed): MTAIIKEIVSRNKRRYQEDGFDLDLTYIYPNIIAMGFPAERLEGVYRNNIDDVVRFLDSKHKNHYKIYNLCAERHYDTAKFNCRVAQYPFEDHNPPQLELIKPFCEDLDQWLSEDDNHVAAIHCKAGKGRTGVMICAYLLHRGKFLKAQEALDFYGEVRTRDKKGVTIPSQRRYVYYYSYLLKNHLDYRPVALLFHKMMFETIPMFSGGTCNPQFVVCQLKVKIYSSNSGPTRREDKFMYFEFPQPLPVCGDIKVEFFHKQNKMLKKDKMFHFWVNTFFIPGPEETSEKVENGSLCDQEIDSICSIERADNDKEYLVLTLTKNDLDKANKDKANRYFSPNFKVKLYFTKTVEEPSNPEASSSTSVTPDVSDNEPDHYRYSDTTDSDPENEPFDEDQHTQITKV

MEF PTEN wt = assay: Migration Assay, MEF PTEN wt; format: cell-based, mouse
RAC1-GTP = format: cell-based, mouse
PTEN [3] = target: T1, PTEN; assay: PTEN Inhibition Assay: IC50 Determinations; format: biochemical
U87MG PTEN wt = format: cell-based
PTP1B = target: T2, PTP1B (Homo sapiens, UniProt P18031); assay: PTP1B Inhibition Assay: IC50 Determinations; format: biochemical
T2 sequence (P18031 1-435): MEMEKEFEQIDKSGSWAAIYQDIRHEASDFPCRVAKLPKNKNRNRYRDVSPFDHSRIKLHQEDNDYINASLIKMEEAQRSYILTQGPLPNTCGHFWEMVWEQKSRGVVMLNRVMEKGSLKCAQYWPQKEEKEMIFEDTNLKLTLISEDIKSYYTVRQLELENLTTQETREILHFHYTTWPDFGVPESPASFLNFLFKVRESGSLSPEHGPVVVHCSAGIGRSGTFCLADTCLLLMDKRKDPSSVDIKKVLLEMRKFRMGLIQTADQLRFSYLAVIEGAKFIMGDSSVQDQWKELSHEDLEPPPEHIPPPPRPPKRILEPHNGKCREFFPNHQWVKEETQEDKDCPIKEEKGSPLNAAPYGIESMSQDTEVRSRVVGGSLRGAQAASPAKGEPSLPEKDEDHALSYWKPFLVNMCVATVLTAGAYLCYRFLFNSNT

[4] = system: human brain endothelial cells (HBEC); assay: MTT Assay for Determining Toxicity, HBEC; format: cell-based; details: Endothelial cell, read-out: Viability IC50 HBEC
U87MG PTEN null = format: cell-based
MEF PTEN null = assay: Migration Assay, MEF PTEN null; format: cell-based, mouse
[5] = system: HBEC (Human Brain Endothelial Cells); assay: Wound Healing Assay; format: cell-based
[6] = system: human non-small cell lung cancer cells (H1299); assay: MTT Assay for Determining Toxicity, H1299; format: cell-based; details: read-out: Viability IC50 H1299
GST-PTEN fusion protein = GST-PTEN fusion protein (Homo sapiens, UniProt P60484); assay: Immobilized PTEN; format: biochemical; details: PLV substrate
GST-PTEN fusion protein, sequence (P60484 whole entry, the tested form may be a part): as the sequence (P60484 whole entry, species assumed) above
Protocol: In the PTEN inhibition assay, to exclude the possibility that PTEN inhibitor candidates interact with the unilameller PIP3 lipid vesicle (PLV) to block PTEN and artificially mimic PTEN inhibition, PTEN was bound to a solid support and treated with inhibitor, the inhibitor washed away and then the capability of the bound PTEN to dephosphorylate PLV was determined. […] The gel was centrifuged, washed 3 times and centrifuged again. […] Then a 100 ul portion of malachite green buffer (Upstate, Charlottesville, Va.) was added to develop the color in the dark at room temperature. […] Optical density measurements were converted to nanomoles of phosphate detected using a phosphate-malachite green standard calibration curve.

[7] = read-out: Branch (% of control)
[8] = read-out: % Inhibition @ 250 uM
[9] = MTT, serum-free, 2 hours with compound
[10] = relative to no treatment control
[11] = NCI-H1299, MTT, serum-free, 2 hours with compound
[12] = 250 uM, Table 27 isatins, read-out: % Inhibition @250 uM

## O=c1cc(N2CCOCC2)oc2c(-c3ccccc3)cccc12 [LY294002, reference compound]
Mouse aortic ring; [7]
  activity at 40 µM: 0 to 0.8%
Mouse aortic ring; read-out: Stem (% of control)
  activity at 40 µM: 0 to 2%

## CC(C)(C)C(=O)Nc1ccc2c(c1)C(=O)C(=O)c1ccccc1-2 [SF1670-000, N-(9,10-Dioxo-9,10-dihydro-phenanthren-2-yl)-2,2-dimethyl-propionamide]
[1]; 2 h
  IC50: 44 µM
PTEN [2]; [8]
  inhibition at 250 µM: 100%
MEF PTEN wt
  migration number, Average: 16.00 and 22.60 and 31.20 and 28.70 and 26.80
RAC1-GTP
  integrin induced activation of RAC to its GTP bound state: augmented integrin induced activation of RAC
PTEN [3]
  IC50: 2 µM
U87MG PTEN wt
  concentration of maximal induction of migration: 30 nM
PTP1B
  IC50: 17 µM
[4]; 2 h
  IC50: 5 µM
U87MG PTEN null
  migration number, Average: 60.90 and 57.20
MEF PTEN null
  migration number, Average: 47.20 and 49.30 and 49.90 and 47.60 and 45.90
Mouse aortic ring; [7]
  activity at 5 µM: 126 to 166%
Mouse aortic ring; read-out: Stem (% of control)
  activity at 5 µM: 107 to 196%
[5]
  HBEC migration across the wound, in words: migrate faster
[6]; NCI-H1299, 2 h
  IC50: 10 µM

## O=C1C(=O)c2cccnc2-c2ncccc21 [SF1720-000, 1,10-phenanthroline-5,6-dione]
[1]; [9]
  IC50: 7 µM
MEF PTEN wt; 125 uM, Table 4
  migration number, Average: 18.20
MEF PTEN wt; 250 uM, Table 4
  migration number, Average: 11.90
PTEN [3]; Table 1, read-out: PTEN Inhibition IC50
  IC50: 5 µM
PTEN [3]; Table 25, read-out: PTEN IC50
  IC50: 5 µM
PTEN [3]; Table 29, read-out: PTEN IC50
  IC50: 5 µM
PTEN [3]; ratio of IC50's
  selective inhibition for PTEN over PTP1B: more than 50 fold
PTP1B; Table 29, read-out: PTP1B IC50
  IC50: > 250 µM
[4]; [9]
  IC50: 1 µM
GST-PTEN fusion protein; PTEN in solution
  inorganic phosphate detected, oriPTEN + 1720, Average: 0.1028 nmol
GST-PTEN fusion protein; PTEN in solution, single determinations
  inorganic phosphate detected, oriPTEN + 1720: 0.0995 nmol and 0.106 nmol
GST-PTEN fusion protein; immobilized PTEN pretreated 1 hour, washed
  inorganic phosphate detected, PTEN gel/1720 bound, Average: 0.1142 nmol
GST-PTEN fusion protein; immobilized PTEN pretreated 1 hour, washed, single determinations
  inorganic phosphate detected, PTEN gel/1720 bound: 0.1191 nmol and 0.1093 nmol
MEF PTEN null; 125 uM, Table 4
  migration number, Average: 36.50
MEF PTEN null; 250 uM, Table 4
  migration number, Average: 37.30
[5]; 10 nM, 2 hrs
  distance the cells have grown out: 0.03* millimeters
[5]; 10 nM, 4 hrs
  distance the cells have grown out: 0.04667 millimeters
[5]; 10 nM, 6 hrs
  distance the cells have grown out: 0.08* millimeters
[5]; 10 nM, 24 hrs
  distance the cells have grown out: 0.155* millimeters
[5]; 50 nM, 2 hrs
  distance the cells have grown out: 0.03667 millimeters
[5]; 50 nM, 4 hrs
  distance the cells have grown out: 0.04667 millimeters
[5]; 50 nM, 6 hrs
  distance the cells have grown out: 0.05667* millimeters
[5]; 50 nM, 24 hrs
  distance the cells have grown out: 0.1583* millimeters
[5]; 0.111 uM, 2 hrs
  distance the wound edge had moved forward: 0.04333 mm
[5]; 0.111 uM, 4 hrs
  distance the wound edge had moved forward: 0.05667 mm
[5]; 0.111 uM, 6 hrs
  distance the wound edge had moved forward: 0.06833 mm
[5]; 250 nM, 2 hrs
  distance the cells have grown out: 0.025 millimeters
[5]; 250 nM, 4 hrs
  distance the cells have grown out: 0.03667 millimeters
[5]; 250 nM, 6 hrs
  distance the cells have grown out: 0.05167* millimeters
[5]; 250 nM, 24 hrs
  distance the cells have grown out: 0.1117* millimeters
[5]; 0.333 uM, 2 hrs
  distance the wound edge had moved forward: 0.05 mm
[5]; 0.333 uM, 4 hrs
  distance the wound edge had moved forward: 0.085 mm
[5]; 0.333 uM, 6 hrs
  distance the wound edge had moved forward: 0.1333 mm
[5]; [10]
  HBEC migration across the wound, in words: migrate faster
[6]; [11]
  IC50: < 1 µM

## O=C1Nc2ccc([N+](=O)[O-])cc2C1=O [SF1770-000, 5-nitroindoline-2,3-dione]
[1]; [9]
  IC50: > 1000 µM
PTEN [2]; [12]
  inhibition at 250 µM: 99.4%
MEF PTEN wt; 125 uM, Table 4
  migration number, Average: 22.90
MEF PTEN wt; 250 uM, Table 4
  migration number, Average: 22.40
PTEN [3]; Table 29, read-out: PTEN IC50
  IC50: 2.2 µM
PTP1B; Table 29, read-out: PTP1B IC50
  IC50: 16.3 µM
[4]; [9]
  IC50: > 1000 µM
MEF PTEN null; 125 uM, Table 4
  migration number, Average: 42.30
MEF PTEN null; 250 uM, Table 4
  migration number, Average: 41.50
[5]; 10 nM, 2 hrs
  distance the cells have grown out: 0.02667* millimeters
[5]; 10 nM, 4 hrs
  distance the cells have grown out: 0.045* millimeters
[5]; 10 nM, 6 hrs
  distance the cells have grown out: 0.065* millimeters
[5]; 10 nM, 24 hrs
  distance the cells have grown out: 0.1483* millimeters
[5]; 50 nM, 2 hrs
  distance the cells have grown out: 0.05 millimeters
[5]; 50 nM, 4 hrs
  distance the cells have grown out: 0.06 millimeters
[5]; 50 nM, 6 hrs
  distance the cells have grown out: 0.075 millimeters
[5]; 50 nM, 24 hrs
  distance the cells have grown out: 0.2233* millimeters
[5]; 250 nM, 2 hrs
  distance the cells have grown out: 0.04 millimeters
[5]; 250 nM, 4 hrs
  distance the cells have grown out: 0.05167 millimeters
[5]; 250 nM, 6 hrs
  distance the cells have grown out: 0.06667 millimeters
[5]; 250 nM, 24 hrs
  distance the cells have grown out: 0.2017* millimeters
[5]; 1000 nM, 2 hrs
  distance the cells have grown out: 0.04 millimeters
[5]; 1000 nM, 4 hrs
  distance the cells have grown out: 0.06167 millimeters
[5]; 1000 nM, 6 hrs
  distance the cells have grown out: 0.07667 millimeters
[5]; 1000 nM, 24 hrs
  distance the cells have grown out: 0.2417 millimeters
[5]; [10]
  HBEC migration across the wound, in words: migrate faster
[6]; [11]
  IC50: 695 µM

## Cc1ccc(C(=O)Nc2ccc3c(c2)C(=O)C(=O)c2ccccc2-3)cc1 [SF1779-000]
PTEN [2]; [8]
  inhibition at 250 µM: 99.8%
MEF PTEN wt
  migration number, Average: 20.60 and 18.00
PTEN [3]
  IC50: 0.342 µM
PTP1B
  IC50: 0.233 µM
MEF PTEN null
  migration number, Average: 47.30 and 43.50
Mouse aortic ring; [7]
  activity at 5 µM: 112 to 138%
Mouse aortic ring; read-out: Stem (% of control)
  activity at 5 µM: 92 to 125%

## O=C(O)C(=O)Nc1ccc2c(c1)C(=O)C(=O)c1ccccc1-2 [SF1806-000]
PTEN [2]; [8]
  inhibition at 250 µM: 98.1%
PTEN [3]
  IC50: 12.1 µM
PTP1B
  IC50: 1 to 10 µM

## O=C1Nc2ccc(Br)cc2C1=O [SF1814-000]
PTEN [2]; [12]
  inhibition at 250 µM: 97.6%
PTEN [3]
  IC50: 44.9 µM
PTP1B
  IC50: 10 to 100 µM

## O=C1Nc2ccc(Cl)cc2C1=O [SF1816-000]
PTEN [2]; [12]
  inhibition at 250 µM: 95%
PTEN [3]; Table 29, read-out: PTEN IC50
  IC50: 80.7 µM
PTP1B; Table 29, read-out: PTP1B IC50
  IC50: 10 to 100 µM

## O=C1Nc2ccc(Br)cc2C1O (stereo not shown) [SF1818-000]
PTEN [2]; [12]
  inhibition at 250 µM: 97.8%
PTEN [3]; Table 29, read-out: PTEN IC50
  IC50: 31.7 µM
PTP1B; Table 29, read-out: PTP1B IC50
  IC50: < 10 µM

## O=C1Nc2ccc(I)cc2C1=O [SF1819-000]
PTEN [2]; [12]
  inhibition at 250 µM: 96%
PTEN [3]; Table 29, read-out: PTEN IC50
  IC50: 33.6 µM
PTP1B; Table 29, read-out: PTP1B IC50
  IC50: < 10 µM

## O=C1Nc2ccc(F)cc2C1=O [SF1820-000]
PTEN [2]; [12]
  inhibition at 250 µM: 94.6%
PTEN [3]; Table 29, read-out: PTEN IC50
  IC50: 61.9 µM
PTP1B; Table 29, read-out: PTP1B IC50
  IC50: 10 to 100 µM
